Results taken from patent publication US6562856B1, “Pyrazolyl benzyl ether deriviatives having a fluoromethoxy group and the use thereof as pesticides” (Bayer Aktiengesellschaft, priority 1999, dated 2003).

Assays:
[1] = system: Plasmopara viticola; assay: Plasmopara Test (Grapevine)/protective; assay type: in vivo; conditions: protective, application rate 100 g/ha, evaluation 6 days after inoculation
Experimental: Plasmopara Test (Grapevine)/protective
To test for protective activity, young plants are sprayed with the preparation of active compound at the stated application rate. After the spray coating has dried on, the plants are inoculated with an aqueous spore suspension of Plasmopara viticola and then remain in an incubation cabinet at about 20° C. and 100% relative atmospheric humidity for 1 day. The plants are then placed in a greenhouse at about 21° C. and about 90% relative atmospheric humidity for 5 days. The plants are then moistened and placed in an incubation cabin for 1 day.
Evaluation is carried out 6 days after the inoculation. 0% means an efficacy which corresponds to that of the control, whereas an efficacy of 100% means that no infection is observed.

[2] = system: Podosphaera leucotricha; assay: Podosphaera Test (Apple)/protective; assay type: in vivo; conditions: protective, application rate 100 g/ha, evaluation 10 days after inoculation
Experimental: Podosphaera Test (Apple)/protective
(§1) To test for protective activity, young plants are sprayed with the preparation of active compound at the stated application rate. After the spray coating has dried on, the plants are inoculated with an aqueous spore suspension of the apple mildew pathogen Podosphaera leucotricha. The plants are then placed in a greenhouse at about 23° C. and a relative atmospheric humidity of about 70%.
(§2) Evaluation is carried out 10 days after the inoculation. 0% means an efficacy which corresponds to that of the control, whereas an efficacy of 100% means that no infection is observed.

[3] = system: Sphaerotheca fuliginea; assay: Sphaerotheca Test (Cucumber)/protective; assay type: in vivo; conditions: protective, application rate 100 g/ha, evaluation 10 days after inoculation
Experimental: Sphaerotheca Test (Cucumber)/protective
as §1, with “Sphaerotheca fuliginea.” for “the apple mildew pathogen Podosphaera leucotricha.”
as §2

[4] = system: Leptosphaeria nodorum; assay: Leptosphaeria nodorum Test (Wheat)/protective; assay type: in vivo; conditions: protective, application rate 750 g/ha, evaluation 12-14 days after inoculation
Experimental: Leptosphaeria nodorum Test (Wheat)/protective
To test for protective activity, young wheat plants are sprayed with the preparation of active compound at the stated application rate. 1 day after the treatment, the plants are inoculated with an aqueous spore suspension of Leptosphaeria nodorum and then remain at 100% rel. atmospheric humidity and 20° C. for 48 h. The plants are then placed in a greenhouse at 80% rel. atmospheric humidity and a temperature of 22° C.
Evaluation is carried out 12-14 days after the inoculation. 0% means an efficacy which corresponds to that of the control, whereas an efficacy of 100% means that no infection is observed.

[5] = system: Alternaria solani; assay: Alternaria Test (Tomato)/protective; assay type: in vivo; conditions: protective, application rate 750 g/ha, evaluation 7 days after inoculation
Experimental: Alternaria Test (Tomato)/protective
To test for protective activity, young tomato plants are sprayed with the preparation of active compound at the stated application rate. 1 day after the treatment, the plants are inoculated with a spore suspension of Alternaria solani and then remain at 100% rel. humidity and 20° C. for 24 h. The plants then remain at 96% rel. atmospheric humidity and a temperature of 20° C.
Evaluation is carried out 7 days after the inoculation. 0% means an efficacy which corresponds to that of the control, whereas an efficacy of 100% means that no infection is observed.

[6] = system: Pyricularia oryzae; assay type: in vivo; conditions: rice, protective, application rate 125 g/ha, evaluation 7 days after inoculation
[7] = system: larvae of the mustard beetle (Phaedon cochleariae); assay: Phaedon Larvae Test; assay type: in vivo; conditions: cabbage leaves dipped, concentration of active compound 1000 ppm
Source text: (§3) Solvent: 30 parts by weight of acetone

[8] = system: caterpillars of the armyworm (Spodoptera frugiperda); assay: Spodoptera frugiperda Test; assay type: in vivo; conditions: cabbage leaves dipped, concentration of active compound 1000 ppm
Source text: Spodoptera frugiperda Test
as §3

[9] = system: green peach aphid (Myzus persicae); assay: Myzus test; assay type: in vivo; conditions: broad bean seedlings dipped, concentration of active compound 1000 ppm
Source text: as §3

[10] = system: greenhouse red spider mite (Tetranychus urticae); assay: Tetranychus Test (OP-resistant/dip Treatment); conditions: bean plants dipped, OP-resistant, concentration of active compound 100 ppm
Experimental: Emulsifier: 1 part by weight of alkylaryl polyglycol ether
After the desired period of time, the kill in % is determined. 100% means that all spider mites have been killed; 0% means that none of the spider mites have been killed.

Compound `COC(=O)C(=COCF)c1ccccc1COc1ccn(-c2ccc(Cl)cc2)n1` [Example 1, methyl 2-[2-({[1-(4-chlorophenyl)-1H-pyrazol-3-yl]oxy}methyl)phenyl]-3-(fluoromethoxy)-2-acrylate] has an efficacy [1] of no less than 98%, an efficacy [2] of no less than 98% and an efficacy [3] of no less than 98%. The efficacy [4] was no less than 98%, the efficacy [5] was no less than 80% and the efficacy [6] was no less than 80%. For the same compound, the kill rate [7] was 100%, the kill rate [8] was 100% and the kill rate [9] was 100%. The kill rate [10] was 90% and the chromatographic logP was 3.91.
